Test results published in article PMC10712727, “Safety, Tolerability, and Pharmacokinetics of Senaparib, a Novel PARP1/2 Inhibitor, in Chinese Patients With Advanced Solid Tumors: A Phase I Trial” (The Oncologist, 2023).

Test system: patients with advanced solid tumors
Assay: Safety: treatment-emergent and senaparib-related adverse events graded per NCI CTCAE v4.03
Format: in vivo
Conditions: TEAE
Protocol: This phase I, open-label, multicenter, dose-escalation, and dose-expansion study was conducted at three national clinical institutions in China. […] At baseline, all patients enrolled in the dose-escalation phase had to have at least one evaluable lesion, and those in the dose-expansion period had to have at least one measurable lesion, according to Response Evaluation Criteria in Solid Tumors version 1.1 (RECIST v1.1).[16] Entry to the dose-expansion cohort required the presence of a BRCA mutation, with the exception of patients with ovarian carcinoma, fallopian tube carcinoma, and primary peritoneal carcinoma. Full study eligibility criteria are provided in Supplementary Table S1.
Dose escalation was conducted using a modified Fibonacci 3 + 3 method (Supplementary Fig. S1).[17] Patients were administered oral senaparib from a planned starting dose of 2 mg once daily (QD), with preliminary dose escalation to 120 mg via nine dose groups, in order of their entry into the study. At a given dose level, each patient received a single dose of senaparib followed by a 7-day washout period. They then entered a continuous dosing period to confirm the safety and PK profile, in which they received senaparib QD from day 1 to day 21 of each 3-week cycle. Progression to the next higher dose required approval from the Data Safety Monitoring Committee (DSMC) upon review of the safety and PK data of the previous dose. A 50-mg twice-daily (BID) dosing group was added (planned enrollment, n = 6 patients) based on a DSMC review of the safety, PK, and efficacy analysis of the completed QD dose groups in the phase I clinical trial of senaparib dose escalation in Australia (NCT03507543), which commenced prior to the start of this trial.
The dose-expansion period included 3 populations: dose groups in which at least one patient achieved complete response (CR) or partial response (PR) per RECIST v1.1[16] and 1 dose group higher (evaluated for safety), as well as the dose group at the maximum tolerated dose (MTD)/recommended phase II dose (RP2D). Each of these groups included those patients in the respective dose-escalation group plus a planned additional 10 patients (approximately 20 patients in the MTD/RP2D group) with BRCA^mut+ solid tumors (ovarian, breast, or prostate cancer were preferred, and ovarian cancer could be BRCA wild type). Patients received senaparib monotherapy orally QD or BID (50-mg dose only) over each 3-week cycle until disease progression or unacceptable toxicity.
DLTs were predefined toxicities (Supplementary Table S2) recorded over the 7 days following the single-dose administration of senaparib and during the first treatment cycle (day 1-day 21) for each dose group in the dose-escalation period only. The MTD was defined as the maximum dose at which ≤1/6 patients experienced a DLT. Senaparib PK parameters were derived from blood samples collected from patients after the single administration, and at regular intervals during the first cycle of the dose-escalation and dose-expansion periods. Plasma concentrations of senaparib were determined using high-performance liquid chromatography-tandem mass spectrometry. Tumor response was assessed every 6 weeks per RECIST v1.1,[16] recording objective response rate (ORR), disease control rate (DCR), duration of response (DOR), and progression-free survival (PFS) by dose level for all patients and for those harboring BRCA^mut+ tumors.

In the case of `O=C(c1cc(Cn2c(=O)[nH]c(=O)c3c(F)cccc32)ccc1F)N1CCN(c2ncccn2)CC1` [Senaparib], the “Vomiting, Gr≥3” value (10 mg QD n = 3) was 0 n (%), the “WBC decreased, All” value (10 mg QD n = 3) was 1 (33.3) n (%) and the “WBC decreased, Gr≥3” value (10 mg QD n = 3) was 0 n (%). For the same compound, the “ALT increased, All” value (20 mg QD n = 5) was 0 n (%), the “ALT increased, Gr≥3” value (20 mg QD n = 5) was 0 n (%) and the “AST increased, All” value (20 mg QD n = 5) was 0 n (%). For the same compound, the “AST increased, Gr≥3” value (20 mg QD n = 5) was 0 n (%), the “Abdominal distension, All” value (20 mg QD n = 5) was 1 (20.0) n (%) and the “Abdominal distension, Gr≥3” value (20 mg QD n = 5) was 0 n (%). The “Anemia (incl. hemoglobin decreased), All” value (20 mg QD n = 5) was 1 (20.0) n (%), the “Anemia (incl. hemoglobin decreased), Gr≥3” value (20 mg QD n = 5) was 1 (20.0) n (%) and the “Appetite decreased, All” value (20 mg QD n = 5) was 1 (20.0) n (%). For the same compound, the “Appetite decreased, Gr≥3” value (20 mg QD n = 5) was 0 n (%), the “Asthenia, All” value (20 mg QD n = 5) was 1 (20.0) n (%) and the “Asthenia, Gr≥3” value (20 mg QD n = 5) was 0 n (%). For the same compound, the “Blood bilirubin increased, All” value (20 mg QD n = 5) was 0 n (%), the “Blood bilirubin increased, Gr≥3” value (20 mg QD n = 5) was 0 n (%) and the “Blood creatinine increased, All” value (20 mg QD n = 5) was 1 (20.0) n (%). The “Blood creatinine increased, Gr≥3” value (20 mg QD n = 5) was 0 n (%), the “Hypokalemia, All” value (20 mg QD n = 5) was 1 (20.0) n (%) and the “Hypokalemia, Gr≥3” value (20 mg QD n = 5) was 0 n (%). For the same compound, the “Hyponatremia, All” value (20 mg QD n = 5) was 0 n (%), the “Hyponatremia, Gr≥3” value (20 mg QD n = 5) was 0 n (%) and the “Nausea, All” value (20 mg QD n = 5) was 1 (20.0) n (%). For the same compound, the “Nausea, Gr≥3” value (20 mg QD n = 5) was 0 n (%), the “Neutrophil count decreased, All” value (20 mg QD n = 5) was 0 n (%) and the “Neutrophil count decreased, Gr≥3” value (20 mg QD n = 5) was 0 n (%). For the same compound, the “Pain in extremity, All” value (20 mg QD n = 5) was 1 (20.0) n (%), the “Pain in extremity, Gr≥3” value (20 mg QD n = 5) was 1 (20.0) n (%) and the “Platelet count decreased, All” value (20 mg QD n = 5) was 1 (20.0) n (%). The “Platelet count decreased, Gr≥3” value (20 mg QD n = 5) was 0 n (%), the “Protein in urine, All” value (20 mg QD n = 5) was 1 (20.0) n (%) and the “Protein in urine, Gr≥3” value (20 mg QD n = 5) was 0 n (%). The “Vomiting, All” value (20 mg QD n = 5) was 0 n (%), the “Vomiting, Gr≥3” value (20 mg QD n = 5) was 0 n (%) and the “WBC decreased, All” value (20 mg QD n = 5) was 1 (20.0) n (%). For the same compound, the “WBC decreased, Gr≥3” value (20 mg QD n = 5) was 0 n (%), the “ALT increased, All” value (40 mg QD n = 3) was 0 n (%) and the “ALT increased, Gr≥3” value (40 mg QD n = 3) was 0 n (%). The “AST increased, All” value (40 mg QD n = 3) was 0 n (%), the “AST increased, Gr≥3” value (40 mg QD n = 3) was 0 n (%) and the “Abdominal distension, All” value (40 mg QD n = 3) was 0 n (%). The “Abdominal distension, Gr≥3” value (40 mg QD n = 3) was 0 n (%), the “Anemia (incl. hemoglobin decreased), All” value (40 mg QD n = 3) was 1 (33.3) n (%) and the “Anemia (incl. hemoglobin decreased), Gr≥3” value (40 mg QD n = 3) was 0 n (%). For the same compound, the “Appetite decreased, All” value (40 mg QD n = 3) was 0 n (%), the “Appetite decreased, Gr≥3” value (40 mg QD n = 3) was 0 n (%) and the “Asthenia, All” value (40 mg QD n = 3) was 1 (33.3) n (%). The “Asthenia, Gr≥3” value (40 mg QD n = 3) was 0 n (%), the “Blood bilirubin increased, All” value (40 mg QD n = 3) was 0 n (%) and the “Blood bilirubin increased, Gr≥3” value (40 mg QD n = 3) was 0 n (%). For the same compound, the “Blood creatinine increased, All” value (40 mg QD n = 3) was 1 (33.3) n (%), the “Blood creatinine increased, Gr≥3” value (40 mg QD n = 3) was 0 n (%) and the “Hypokalemia, All” value (40 mg QD n = 3) was 0 n (%). For the same compound, the “Hypokalemia, Gr≥3” value (40 mg QD n = 3) was 0 n (%), the “Hyponatremia, All” value (40 mg QD n = 3) was 0 n (%) and the “Hyponatremia, Gr≥3” value (40 mg QD n = 3) was 0 n (%). The “Nausea, All” value (40 mg QD n = 3) was 0 n (%), the “Nausea, Gr≥3” value (40 mg QD n = 3) was 0 n (%) and the “Neutrophil count decreased, All” value (40 mg QD n = 3) was 0 n (%). For the same compound, the “Neutrophil count decreased, Gr≥3” value (40 mg QD n = 3) was 0 n (%), the “Pain in extremity, All” value (40 mg QD n = 3) was 0 n (%) and the “Pain in extremity, Gr≥3” value (40 mg QD n = 3) was 0 n (%). For the same compound, the “Platelet count decreased, All” value (40 mg QD n = 3) was 0 n (%), the “Platelet count decreased, Gr≥3” value (40 mg QD n = 3) was 0 n (%) and the “Protein in urine, All” value (40 mg QD n = 3) was 0 n (%). The “Protein in urine, Gr≥3” value (40 mg QD n = 3) was 0 n (%), the “Vomiting, All” value (40 mg QD n = 3) was 0 n (%) and the “Vomiting, Gr≥3” value (40 mg QD n = 3) was 0 n (%). The “WBC decreased, All” value (40 mg QD n = 3) was 0 n (%), the “WBC decreased, Gr≥3” value (40 mg QD n = 3) was 0 n (%) and the “ALT increased, All” value (50 mg BID n = 4) was 1 (25.0) n (%). The “ALT increased, Gr≥3” value (50 mg BID n = 4) was 0 n (%), the “AST increased, All” value (50 mg BID n = 4) was 1 (25.0) n (%) and the “AST increased, Gr≥3” value (50 mg BID n = 4) was 0 n (%). The “Abdominal distension, All” value (50 mg BID n = 4) was 0 n (%), the “Abdominal distension, Gr≥3” value (50 mg BID n = 4) was 0 n (%) and the “Anemia (incl. hemoglobin decreased), All” value (50 mg BID n = 4) was 3 (75.0) n (%). The “Anemia (incl. hemoglobin decreased), Gr≥3” value (50 mg BID n = 4) was 2 (50.0) n (%), the “Appetite decreased, All” value (50 mg BID n = 4) was 0 n (%) and the “Appetite decreased, Gr≥3” value (50 mg BID n = 4) was 0 n (%). The “Asthenia, All” value (50 mg BID n = 4) was 1 (25.0) n (%), the “Asthenia, Gr≥3” value (50 mg BID n = 4) was 0 n (%) and the “Blood bilirubin increased, All” value (50 mg BID n = 4) was 0 n (%). For the same compound, the “Blood bilirubin increased, Gr≥3” value (50 mg BID n = 4) was 0 n (%), the “Blood creatinine increased, All” value (50 mg BID n = 4) was 0 n (%) and the “Blood creatinine increased, Gr≥3” value (50 mg BID n = 4) was 0 n (%). The “Hypokalemia, All” value (50 mg BID n = 4) was 0 n (%), the “Hypokalemia, Gr≥3” value (50 mg BID n = 4) was 0 n (%) and the “Hyponatremia, All” value (50 mg BID n = 4) was 3 (75.0) n (%). For the same compound, the “Hyponatremia, Gr≥3” value (50 mg BID n = 4) was 1 (25.0) n (%), the “Nausea, All” value (50 mg BID n = 4) was 2 (50.0) n (%) and the “Nausea, Gr≥3” value (50 mg BID n = 4) was 0 n (%). The “Neutrophil count decreased, All” value (50 mg BID n = 4) was 0 n (%), the “Neutrophil count decreased, Gr≥3” value (50 mg BID n = 4) was 0 n (%) and the “Pain in extremity, All” value (50 mg BID n = 4) was 0 n (%). For the same compound, the “Pain in extremity, Gr≥3” value (50 mg BID n = 4) was 0 n (%), the “Platelet count decreased, All” value (50 mg BID n = 4) was 1 (25.0) n (%) and the “Platelet count decreased, Gr≥3” value (50 mg BID n = 4) was 0 n (%). The “Protein in urine, All” value (50 mg BID n = 4) was 0 n (%), the “Protein in urine, Gr≥3” value (50 mg BID n = 4) was 0 n (%) and the “Vomiting, All” value (50 mg BID n = 4) was 2 (50.0) n (%). For the same compound, the “Vomiting, Gr≥3” value (50 mg BID n = 4) was 0 n (%), the “WBC decreased, All” value (50 mg BID n = 4) was 2 (50.0) n (%) and the “WBC decreased, Gr≥3” value (50 mg BID n = 4) was 0 n (%). For the same compound, the “ALT increased, All” value (60 mg QD n = 5) was 0 n (%), the “ALT increased, Gr≥3” value (60 mg QD n = 5) was 0 n (%) and the “AST increased, All” value (60 mg QD n = 5) was 0 n (%). For the same compound, the “AST increased, Gr≥3” value (60 mg QD n = 5) was 0 n (%), the “Abdominal distension, All” value (60 mg QD n = 5) was 2 (40.0) n (%) and the “Abdominal distension, Gr≥3” value (60 mg QD n = 5) was 0 n (%). The “Anemia (incl. hemoglobin decreased), All” value (60 mg QD n = 5) was 0 n (%), the “Anemia (incl. hemoglobin decreased), Gr≥3” value (60 mg QD n = 5) was 0 n (%) and the “Appetite decreased, All” value (60 mg QD n = 5) was 1 (20.0) n (%). The “Appetite decreased, Gr≥3” value (60 mg QD n = 5) was 0 n (%) and the “Asthenia, All” value (60 mg QD n = 5) was 1 (20.0) n (%).
